Results reported in ChEMBL document CHEMBL1124985, “A Free-Wilson/Fujita-Ban analysis and prediction of the analgesic potency of some 3-hydroxy- and 3-methoxy-N-alkylmorphinan-6-one opioids” (J Med Chem, 1990).

Each compound was assayed against Opioid receptor (Mus musculus) (UniProt P42866+P32300+P33534).
Opioid receptor (Mus musculus), sequence (P32300 whole entry, looked up): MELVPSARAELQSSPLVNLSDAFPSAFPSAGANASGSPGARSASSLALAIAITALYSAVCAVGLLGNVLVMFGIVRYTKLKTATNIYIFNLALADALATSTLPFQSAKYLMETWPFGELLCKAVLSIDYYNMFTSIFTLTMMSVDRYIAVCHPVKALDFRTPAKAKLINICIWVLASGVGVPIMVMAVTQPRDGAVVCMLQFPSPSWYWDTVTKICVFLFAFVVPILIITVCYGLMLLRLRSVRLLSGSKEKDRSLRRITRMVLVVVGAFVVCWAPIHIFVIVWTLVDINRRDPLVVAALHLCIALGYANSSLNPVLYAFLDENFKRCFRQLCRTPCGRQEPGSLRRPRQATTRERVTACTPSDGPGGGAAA
Opioid receptor (Mus musculus), sequence (P33534 whole entry, looked up): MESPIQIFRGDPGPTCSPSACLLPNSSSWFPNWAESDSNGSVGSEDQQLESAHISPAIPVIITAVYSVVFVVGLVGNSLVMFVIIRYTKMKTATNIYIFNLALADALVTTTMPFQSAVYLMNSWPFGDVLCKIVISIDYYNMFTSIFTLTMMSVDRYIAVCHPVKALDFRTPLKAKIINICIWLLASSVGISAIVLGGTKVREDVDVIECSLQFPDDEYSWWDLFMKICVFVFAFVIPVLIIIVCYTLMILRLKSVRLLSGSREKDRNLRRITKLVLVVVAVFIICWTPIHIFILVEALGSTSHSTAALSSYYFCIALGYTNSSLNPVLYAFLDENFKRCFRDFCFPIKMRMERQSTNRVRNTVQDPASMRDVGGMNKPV
Opioid receptor (Mus musculus), sequence (P42866 whole entry, looked up): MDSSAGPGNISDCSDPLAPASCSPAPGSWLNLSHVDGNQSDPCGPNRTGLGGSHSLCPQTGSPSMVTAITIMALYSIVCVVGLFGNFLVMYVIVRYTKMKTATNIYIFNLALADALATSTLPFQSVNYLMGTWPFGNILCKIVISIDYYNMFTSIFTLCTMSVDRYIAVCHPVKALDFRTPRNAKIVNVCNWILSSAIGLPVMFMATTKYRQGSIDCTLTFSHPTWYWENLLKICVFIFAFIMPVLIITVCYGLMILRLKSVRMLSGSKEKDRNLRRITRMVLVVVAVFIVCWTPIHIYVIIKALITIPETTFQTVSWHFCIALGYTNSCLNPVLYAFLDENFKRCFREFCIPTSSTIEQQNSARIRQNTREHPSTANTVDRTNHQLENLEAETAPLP
Description: Analgesic Potency was tested against mice
For `CCC[C@H]1CCC[C@]23CCN(CC4CC4)[C@H](Cc4ccc(OC)cc42)C13` (some centres undefined), the Log AP was 4.76.
Compound `COc1ccc2c(c1)[C@@]13CCC(C)CC1[C@@H](C2)N(CC1CCC1)CC3` (some centres undefined) has a Log AP of 5.16.
`Oc1ccc2c3c1O[C@H]1CCCC4[C@@H](C2)N(CC2CC2)CC[C@@]341` (some centres undefined) was tested, and the Log AP was 5.37.
`COc1ccc2c(c1)[C@]13CCN(CC4CCC4)[C@H](C2)[C@H]1CC(C)C(=O)C3` (some centres undefined) gave a Log AP of 4.68.
Compound `CC1CC[C@]23CCN(C)[C@H](Cc4ccc(O)cc42)C3C1` (some centres undefined) has a Log AP of 5.56.
With `CC1CC[C@]23CCN(CC4CCC4)[C@H](Cc4ccc(O)cc42)C3[C@H]1C` (stereo in doubt; 20) the Log AP was 6.95.
In the case of `C[C@H]1CCC[C@]23CCN(CC4CCC4)[C@H](Cc4ccc(O)cc42)C13` (stereo in doubt; 41), the Log AP is reported as 6.6.
`CC[C@H]1C(C)CC[C@]23CCN(CC4CCC4)[C@H](Cc4ccc(O)cc42)C13` (some centres undefined) gave a Log AP of 5.82.
`C[C@H]1CC[C@@H]2Oc3c(O)ccc4c3[C@@]23CCN(CC2CCC2)[C@H](C4)C13` (some centres undefined) was tested, and the Log AP was 6.41.
In the case of `COc1ccc2c(c1)[C@@]13CCC[C@H](C)C1[C@@H](C2)N(CC1CCC1)CC3` (some centres undefined), the Log AP is reported as 5.99.
Compound `COc1ccc2c(c1)[C@@]13CCC[C@H](C)C1[C@@H](C2)N(C)CC3` (some centres undefined) has a Log AP of 5.87.
For `Oc1ccc2c(c1)[C@@]13CCCC[C@H]1[C@@H](C2)N(CC1CCC1)CC3`, the Log AP was 6.45.
`COc1ccc2c(c1)[C@@]13CCC(C)[C@H](C)C1[C@@H](C2)N(CC1CCC1)CC3` (some centres undefined) showed a Log AP of 5.25.
In the case of `C=C1C[C@H](C)[C@H]2[C@H]3Cc4ccc(O)cc4[C@@]2(CCN3CC2CCC2)C1`, the Log AP is reported as 6.07.
`CC[C@H]1CCC2Oc3c(OC)ccc4c3[C@@]23CCN(C)[C@H](C4)C13` (some centres undefined) showed a Log AP of 5.72.
Compound `COc1ccc2c3c1OC1CC[C@H](C)C4[C@@H](C2)N(CC2CC2)CC[C@]314` (some centres undefined) has a Log AP of 5.16.
In the case of `CC[C@H]1CCC[C@]23CCN(C)[C@H](Cc4ccc(OC)cc42)C13` (some centres undefined), the Log AP is reported as 5.93.
`COc1ccc2c3c1OC1CC[C@H](C)C4[C@@H](C2)N(CC2CCC2)CC[C@]314` (some centres undefined) showed a Log AP of 5.26.
With `C[C@H]1CC(=O)C[C@]23CCN(CC4CCC4)[C@H](Cc4ccc(O)cc42)[C@@H]13` the Log AP was 5.75.
`CN1CC[C@]23c4c5ccc(O)c4O[C@H]2CCCC3[C@H]1C5` (some centres undefined) gave a Log AP of 5.95.
`COc1ccc2c3c1O[C@H]1CCCC4[C@@H](C2)N(CC2CCC2)CC[C@@]341` (some centres undefined) showed a Log AP of 5.58.
Work on `C[C@H]1CCC[C@]23CCN(C)[C@H](Cc4ccc(O)cc42)[C@H]13` yielded a Log AP of 5.12.
With `COc1ccc2c(c1)[C@]13CCN(C)[C@H](C2)[C@@H]1C=C(C)C(=O)C3` the Log AP was 5.67.
Compound `Oc1ccc2c(c1)[C@@]13CCCC[C@H]1[C@@H](C2)N(CC1CC1)CC3` has a Log AP of 5.16.
`C[C@H]1CCC2Oc3c(O)ccc4c3[C@@]23CCN(C)[C@H](C4)C13` (some centres undefined) showed a Log AP of 6.03.
In the case of `CC[C@H]1CCC[C@]23CCN(CC4CC4)[C@H](Cc4ccc(OC)cc42)C13` (some centres undefined), the Log AP is reported as 5.91.
For `COc1ccc2c(c1)[C@@]13CCCC[C@H]1[C@@H](C2)N(C)CC3`, the Log AP was 5.84.
Work on `COc1ccc2c3c1O[C@H]1CCCC4[C@@H](C2)N(CC2CC2)CC[C@@]341` (some centres undefined) yielded a Log AP of 6.2.
In the case of `C[C@H]1CCC[C@]23CCN(C)[C@H](Cc4ccc(O)cc42)C13` (some centres undefined), the Log AP is reported as 5.32.
`COc1ccc2c3c1OC1CC[C@H](C)C4[C@@H](C2)N(C)CC[C@]314` (some centres undefined) showed a Log AP of 5.45.
Work on `CN1CC[C@]23CCCCC2C1Cc1ccc(O)cc13` (some centres undefined) yielded a Log AP of 5.99.
For `O=C1CC[C@@H]2[C@H]3Cc4ccc(O)cc4[C@@]2(CCN3CC2CCC2)C1`, the Log AP was 5.92.
With `CC[C@H]1CCC[C@]23CCN(CC4CCC4)[C@H](Cc4ccc(OC)cc42)C13` (some centres undefined) the Log AP was 5.47.
With `COc1ccc2c3c1O[C@H]1CCCC4[C@@H](C2)N(C)CC[C@@]341` (some centres undefined) the Log AP was 5.54.
With `CC1CC[C@]23CCN(CC4CCC4)[C@H](Cc4ccc(O)cc42)C3[C@H]1C` (stereo in doubt; 40) the Log AP was 6.23.
For `CCC[C@H]1CCC[C@]23CCN(C)[C@H](Cc4ccc(OC)cc42)C13` (some centres undefined), the Log AP was 4.9.
Work on `COc1ccc2c(c1)[C@@]13CCC(C)CC1[C@@H](C2)N(CC1CC1)CC3` (some centres undefined) yielded a Log AP of 5.97.
`CC[C@H]1C(C)CC[C@]23CCN(CC4CCC4)[C@H](Cc4ccc(OC)cc42)C13` (some centres undefined) showed a Log AP of 5.04.
In the case of `COc1ccc2c(c1)[C@@]13CCCCC1[C@@H](C2)N(CC1CCC1)CC3` (some centres undefined), the Log AP is reported as 6.09.
`C[C@H]1CCC[C@]23CCN(CC4CCC4)[C@H](Cc4ccc(O)cc42)C13` (stereo in doubt; 46) showed a Log AP of 6.41.
In the case of `CCC[C@H]1CC[C@@H]2Oc3c(OC)ccc4c3[C@@]23CCN(C)[C@H](C4)C13` (some centres undefined), the Log AP is reported as 4.87.
`CC1CC[C@]23CCN(CC4CC4)[C@H](Cc4ccc(O)cc42)C3C1` (some centres undefined) showed a Log AP of 5.24.
In the case of `CC1CC[C@]23CCN(CC4CCC4)[C@H](Cc4ccc(O)cc42)C3C1` (some centres undefined), the Log AP is reported as 6.71.
In the case of `COc1ccc2c(c1)[C@@]13CCC(C)[C@H](C)C1[C@@H](C2)N(CC1CC1)CC3` (some centres undefined), the Log AP is reported as 6.15.
In the case of `C[C@H]1CC(=O)C[C@]23CCN(C)[C@H](Cc4ccc(O)cc42)[C@@H]13`, the Log AP is reported as 6.32.
In the case of `CC[C@H]1C(C)CC[C@]23CCN(C)[C@H](Cc4ccc(OC)cc42)C13` (some centres undefined), the Log AP is reported as 5.69.
`COc1ccc2c(c1)[C@@]13CCC(C)[C@H](C)C1[C@@H](C2)N(C)CC3` (some centres undefined) gave a Log AP of 5.95.
`COc1ccc2c3c1O[C@H]1CC(C)CC4[C@@H](C2)N(C)CC[C@@]341` (some centres undefined) showed a Log AP of 5.71.
In the case of `COc1ccc2c(c1)[C@]13CCN(C)[C@H](C2)[C@@H]1C=CC(=O)C3`, the Log AP is reported as 6.45.
`Oc1ccc2c3c1O[C@H]1CCCC4[C@@H](C2)N(CC2CCC2)CC[C@@]341` (some centres undefined) gave a Log AP of 6.49.
For `COc1ccc2c(c1)[C@@]13CCC[C@H](C)C1[C@@H](C2)N(CC1CC1)CC3` (some centres undefined), the Log AP was 6.59.
`C[C@H]1CCC[C@]23CCN(CC4CC4)[C@H](Cc4ccc(O)cc42)C13` (some centres undefined) showed a Log AP of 4.81.
`COc1ccc2c(c1)[C@@]13CCCCC1[C@@H](C2)N(CC1CC1)CC3` (some centres undefined) was tested, and the Log AP was 6.87.
For `CC[C@H]1CC[C@@H]2Oc3c(OC)ccc4c3[C@@]23CCN(CC2CC2)[C@H](C4)C13` (some centres undefined), the Log AP was 5.18.
